In this assay the target is human SPR (Homo sapiens (Human), UniProt P35270). The assay can be described thus: Evaluation Example 2: Measurement of human SPR inhibitory activity (seven concentrations, sepiapterin absorbance at 420 nm). The conditions noted are these: Evaluation Example 2, seven concentrations 0.14 nM to 100 nM, 240 minutes at room temperature, read-out: IC50. In kind it is biochemical. Put shortly:
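His-tagged full-length human SPR (1-261) was expressed in E. coli and the tag removed. Enzyme at 150 ng/mL in 100 mM Tris-HCl pH 7.5/0.01% BSA was mixed with compound (0.14–100 nM, seven points), 120 μM sepiapterin and 160 μM NADPH, both as added-solution concentrations. After 240 min at room temperature, remaining sepiapterin was read at 420 nm to give percent inhibition.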

IC50 data for eleven compounds are collected here from patent US20240092784A1, “CONDENSED HETEROCYCLIC COMPOUND” (NISSAN CHEMICAL CORPORATION, priority 2020, published 2024).

human SPR, sequence (P35270 whole entry): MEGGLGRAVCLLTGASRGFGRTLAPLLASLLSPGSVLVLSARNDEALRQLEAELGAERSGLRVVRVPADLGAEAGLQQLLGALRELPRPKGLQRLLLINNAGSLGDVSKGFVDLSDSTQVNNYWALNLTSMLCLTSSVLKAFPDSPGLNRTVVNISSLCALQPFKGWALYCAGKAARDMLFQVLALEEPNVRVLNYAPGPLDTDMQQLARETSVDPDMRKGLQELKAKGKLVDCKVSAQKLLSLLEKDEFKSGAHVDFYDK

For the compound `CCN(CC)C(=O)/C=C/c1cnn2c(O)c(C(=O)NC3CC3)c(=O)n(CC(C)C)c12` [compound 504, (E)-N-Cyclopropyl-3-(3-(diethylamino)-3-oxoprop-1-en-1-yl)-7-hydroxy-4-isobutyl-5-oxo-4,5-dihydropyrazolo[1,5-a]pyrimidine-6-carboxamide], the IC50 (as a rule, the point on the concentration scale where inhibition reaches its midpoint) amounted to 0.84 nM. In the case of `CC(C)Cn1c(=O)c(C(=O)NC2CC2)c(O)n2ncc(C(=O)NCc3ccccc3F)c12` [Synthesis Example 233, N6-Cyclopropyl-N3-(2-fluorobenzyl)-7-hydroxy-4-isobutyl-5-oxo-4,5-dihydropyrazolo[1,5-a]pyrimidine-3,6-dicarboxamide] it was 1.03 nM; in that of `CC(C)Cn1c(=O)c(C(=O)NC2CC2)c(O)n2ncc(/C=C/C(C)(C)C)c12` [Synthesis Example 243, (E)-N-Cyclopropyl-3-(3,3-dimethylbut-1-en-1-yl)-7-hydroxy-4-isobutyl-5-oxo-4,5-dihydropyrazolo[1,5-a]pyrimidine-6-carboxamide], 1.58 nM. Then `CC(C)Cn1c(=O)c(C(=O)NC2CC2)c(O)n2ncc(CCc3cccnc3)c12` [Synthesis Example 250, N-Cyclopropyl-7-hydroxy-4-isobutyl-5-oxo-3-(2-(pyridin-3-yl)ethyl)-4,5-dihydropyrazolo[1,5-a]pyrimidine-6-carboxamide], with 0.88 nM; and `Cc1cc2n(CC(C)(C)C)c(=O)c(C(=O)NC3CC3)c(O)n2n1` [Synthesis Example 320, N-Cyclopropyl-7-hydroxy-2-methyl-4-neopentyl-5-oxo-4,5-dihydropyrazolo[1,5-a]pyrimidine-6-carboxamide], with 1.69 nM. In the case of `CC(C)Cn1c(=O)c(C(=O)NC2CC2)c(O)n2ncc(COc3cccnc3)c12` [Synthesis Example 259, N-Cyclopropyl-7-hydroxy-4-isobutyl-5-oxo-3-((pyridin-3-yloxy)methyl)-4,5-dihydropyrazolo[1,5-a]pyrimidine-6-carboxamide] it was 0.18 nM; in that of `CC1(Cn2c(=O)c(C(=O)NC3CC3)c(O)n3ncc(/C=C/C(=O)N4C5CCC4COC5)c23)CC1` [Synthesis Example 367, (E)-3-(3-(3-Oxa-8-azabicyclo[3.2.1]octan-8-yl)-3-oxoprop-1-en-1-yl)-N-cyclopropyl-7-hydroxy-4-((1-methylcyclopropyl)methyl)-5-oxo-4,5-dihydropyrazolo[1,5-a]pyrimidine-6-carboxamide], 0.62 nM; in that of `CC(C)Cn1c(=O)c(C(=O)NC2CC2)c(O)n2ncc(/C=C/C(=O)N3CCC[C@@H]3C(F)F)c12` [compound 601, (R,E)-N-Cyclopropyl-3-(3-(2-(difluoromethyl)pyrrolidin-1-yl)-3-oxoprop-1-en-1-yl)-7-hydroxy-4-isobutyl-5-oxo-4,5-dihydropyrazolo[1,5-a]pyrimidine-6-carboxamide], 1.08 nM. Regarding `CNc1nn2c(O)c(C(=O)NC3CC3)c(=O)n(CC(C)C)c2c1/C=C/C(=O)N1CCOC[C@@H]1C` [Synthesis Example 430, (S,E)-N-Cyclopropyl-7-hydroxy-4-isobutyl-2-(methylamino)-3-(3-(3-methylmorpholino)-3-oxoprop-1-en-1-yl)-5-oxo-4,5-dihydropyrazolo[1,5-a]pyrimidine-6-carboxamide], the IC50 was found to be 0.92 nM.

Take `CNc1ccncc1-c1cc2n(CC(C)(C)C)c(=O)c(C(=O)NC3CC3)c(O)n2n1` [Synthesis Example 308, N-Cyclopropyl-7-hydroxy-2-(4-(methylamino)pyridin-3-yl)-4-neopentyl-5-oxo-4,5-dihydropyrazolo[1,5-a]pyrimidine-6-carboxamide]: the IC50 came out at 3.6 nM. In the case of `CC(C)Cn1c(=O)c(C(=O)NC2CC2)c(O)n2ncc(CC(=O)N3CCOCC3)c12` [Synthesis Example 264, N-Cyclopropyl-7-hydroxy-4-isobutyl-3-(2-morpholino-2-oxoethyl)-5-oxo-4,5-dihydropyrazolo[1,5-a]pyrimidine-6-carboxamide] it was 0.95 nM.
